This is an account of results in patent publication US6504058B1 (priority 1997, dated 2003).

The test system of assay [1] is Erysiphe graminis f. sp. tritici. As to the kind of experiment: Test A: wheat powdery mildew, preventive spray on wheat seedlings, disease rating. The assay is classed as in vivo, Erysiphe graminis f. sp. tritici (on wheat seedlings). The conditions noted are these: 200 ppm test suspension sprayed to run-off (equivalent to 500 g/ha) on wheat seedlings; 100 = 100% disease control, 0 = no control; # = significant activity. From the text:
(§1) Test compounds were first dissolved in acetone in an amount equal to 3% of the final volume and then suspended at a concentration of 200 ppm in purified water containing 250 ppm of the surfactant Trem® 014 (polyhydric alcohol esters). The resulting test suspensions were then used in the following test. Spraying these 200 ppm test suspensions to the point of run-off on the test plants is the equivalent of a rate of 500 g/ha.
The test suspension was sprayed to the point of run-off on wheat seedlings. The following day the seedlings were inoculated with a spore dust of Erysiphe graminis f. sp. tritici, (the causal agent of wheat powdery mildew) and incubated in a growth chamber at 20° C. for 7 days, after which disease ratings were made.
(§2) Results for Tests A-E are given in Table A. In the table, a rating of 100 indicates 100% disease control and a rating of 0 indicates no disease control (relative to the controls). A dash (-) indicates no test results. ND indicates disease control not determined due to phytotoxicity. # indicates significant activity.

In the next assay the test system is Puccinia recondita. Kind of assay: Test B: wheat leaf rust, preventive spray on wheat seedlings, disease rating. The format is in vivo, Puccinia recondita (on wheat seedlings). The following applies: 200 ppm test suspension sprayed to run-off (equivalent to 500 g/ha) on wheat seedlings; 100 = 100% disease control, 0 = no control; # = significant activity.
Source text: as §1
The test suspension was sprayed to the point of run-off on wheat seedlings. The following day the seedlings were inoculated with a spore suspension of Puccinia recondita (the causal agent of wheat leaf rust) and incubated in a saturated atmosphere at 20° C. for 24 h, and then moved to a growth chamber at 20° C. for 6 days, after which disease ratings were made.
as §2

The subject of another assay is Pyricularia oryzae. The format is in vivo, Pyricularia oryzae (on rice seedlings). The following applies: 200 ppm test suspension sprayed to run-off (equivalent to 500 g/ha) on rice seedlings; 100 = 100% disease control, 0 = no control; # = significant activity.
The subject of the next assay is Phytophthora infestans. The format is in vivo, Phytophthora infestans (on tomato seedlings). The conditions noted are these: 200 ppm test suspension sprayed to run-off (equivalent to 500 g/ha) on tomato seedlings; 100 = 100% disease control, 0 = no control; # = significant activity.
For another assay, the system named is Botrytis cinerea. Kind of assay: Test E: gray mold, preventive spray on cucumber seedlings, disease rating. The conditions noted are these: 200 ppm test suspension sprayed to run-off (equivalent to 500 g/ha) on cucumber seedlings; 100 = 100% disease control, 0 = no control; # = significant activity. The format is in vivo, Botrytis cinerea (on cucumber seedlings).
Source text: as §1
The test suspension was sprayed to the point of run-off on cucumber seedlings. The following day the seedlings were inoculated with a spore suspension of Botrytis cinerea (the causal agent of gray mold on many crops) and incubated in a saturated atmosphere at 20° C. for 48 h, and moved to a growth chamber at 20° C. for 5 days, after which disease ratings were made.
as §2

As for `CC(COc1ccc(Br)cc1C#N)NC(=O)C1(C)CC(C)(Cl)C1` (centres unmarked) [compound 38], the “Test A disease control rating (wheat powdery mildew)” value (“Test A disease control rating” for short) in assay [1] is recorded as 0 (a rating of 0 indicates no disease control (relative to the controls)). Further, the “Test B disease control rating (wheat leaf rust)” value (“Test B disease control rating” below) with Puccinia recondita is 66# %. The “Test C disease control rating (rice blast)” value (shortened to “Test C disease control rating”) in the assay on Pyricularia oryzae was 0 (a rating of 0 indicates no disease control (relative to the controls)). Also, the “Test D disease control rating (potato and tomato late blight)” value (“Test D disease control rating” for short) in the assay on Phytophthora infestans was found to be 23%. The “Test E disease control rating (gray mold)” value with Botrytis cinerea was determined as 8%.

Consider `CC(COc1cc(F)ccc1Cl)NC(=O)C1(C)CC(C)(Cl)C1` (centres unmarked) [compound 50], for which the “Test A disease control rating” value in assay [1] is 54%. Besides, in the assay on Puccinia recondita, the “Test B disease control rating” value was 0 (a rating of 0 indicates no disease control (relative to the controls)). For the same compound, the “Test C disease control rating” value with Pyricularia oryzae is 94# %. The “Test D disease control rating” value in the assay on Phytophthora infestans was 0 (a rating of 0 indicates no disease control (relative to the controls)). Also, in the assay on Botrytis cinerea, the “Test E disease control rating (gray mold)” value was 0 (a rating of 0 indicates no disease control (relative to the controls)).

As to `CC(NC(=O)C1(C)CC(C)(Cl)C1)c1ccc(Br)cc1` (centres unmarked) [compound 14], the “Test A disease control rating” value in assay [1] is recorded as 0 (a rating of 0 indicates no disease control (relative to the controls)). Further, in the assay on Puccinia recondita, the “Test B disease control rating” value is recorded as 0 (a rating of 0 indicates no disease control (relative to the controls)). The “Test C disease control rating” value with Pyricularia oryzae is on record as 97# %. Further, the “Test D disease control rating” value with Phytophthora infestans is reported as 0 (a rating of 0 indicates no disease control (relative to the controls)). In addition, the “Test E disease control rating (gray mold)” value with Botrytis cinerea is reported as 0 (a rating of 0 indicates no disease control (relative to the controls)).

Turning to `CC(COc1cc(Cl)ccc1C#N)NC(=O)C1(C)CC(C)(Cl)C1` (centres unmarked) [compound 46], in assay [1], the “Test A disease control rating” value is listed as 63%. Moreover, the “Test B disease control rating” value with Puccinia recondita came out at 28%. Also, the “Test C disease control rating” value in the assay on Pyricularia oryzae was 91# %. For the same compound, in the assay with Phytophthora infestans, the “Test D disease control rating” value amounted to 43%. For the same compound, the “Test E disease control rating (gray mold)” value in the assay on Botrytis cinerea is reported as 0 (a rating of 0 indicates no disease control (relative to the controls)).

As to `COc1cc(Br)ccc1C(C)NC(=O)C1(C)CC(C)(Cl)C1` (centres unmarked) [compound 59], in assay [1], the “Test A disease control rating” value is listed as 0 (a rating of 0 indicates no disease control (relative to the controls)). Also, the “Test B disease control rating” value in the assay on Puccinia recondita is reported as 85# %. Also, in the assay on Pyricularia oryzae, the “Test C disease control rating” value is 100# (a rating of 100 indicates 100% disease control). Further, the “Test D disease control rating” value in the assay with Phytophthora infestans turned out to be 23%. In addition, the “Test E disease control rating (gray mold)” value in the assay with Botrytis cinerea was 0 (a rating of 0 indicates no disease control (relative to the controls)).

For `CC(COc1cc(F)ccc1C#N)NC(=O)C1(C)CC(C)(Cl)C1` (centres unmarked) [compound 43], the “Test A disease control rating” value in assay [1] is 0 (a rating of 0 indicates no disease control (relative to the controls)). Moreover, the “Test B disease control rating” value in the assay on Puccinia recondita is listed as 0 (a rating of 0 indicates no disease control (relative to the controls)). Besides, in the assay with Pyricularia oryzae, the “Test C disease control rating” value is listed as 0 (a rating of 0 indicates no disease control (relative to the controls)). Moreover, in the assay with Phytophthora infestans, the “Test D disease control rating” value was 20%. Moreover, the “Test E disease control rating (gray mold)” value in the assay with Botrytis cinerea was 19%.

With `CC(NC(=O)C1CC(C)(Cl)C1)C(Oc1ccccc1C#N)c1ccccc1` (centres unmarked) [compound 36], the “Test A disease control rating” value in assay [1] was 0 (a rating of 0 indicates no disease control (relative to the controls)). Also, the “Test B disease control rating” value with Puccinia recondita is 0 (a rating of 0 indicates no disease control (relative to the controls)). Further, in the assay on Pyricularia oryzae, the “Test C disease control rating” value is recorded as 0 (a rating of 0 indicates no disease control (relative to the controls)). Besides, the “Test D disease control rating” value in the assay on Phytophthora infestans was 0 (a rating of 0 indicates no disease control (relative to the controls)). In addition, the “Test E disease control rating (gray mold)” value in the assay with Botrytis cinerea is listed as 0 (a rating of 0 indicates no disease control (relative to the controls)).

Regarding `CC(NC(=O)C1(C)CC(C)(Cl)C1)c1ccc(Cl)cc1Cl` (centres unmarked) [compound 72], the “Test A disease control rating” value in assay [1] is on record as 91# %. The “Test B disease control rating” value in the assay with Puccinia recondita was 0 (a rating of 0 indicates no disease control (relative to the controls)). In the assay with Pyricularia oryzae, the “Test C disease control rating” value is listed as 99# %. Also, the “Test D disease control rating” value in the assay with Phytophthora infestans was 66%. For the same compound, the “Test E disease control rating (gray mold)” value with Botrytis cinerea is listed as 0 (a rating of 0 indicates no disease control (relative to the controls)).

In the case of `COc1cc(Br)ccc1C(C)NC(=O)C1(C)CC(C)(F)C1` (centres unmarked) [compound 70], the “Test A disease control rating” value in assay [1] is 0 (a rating of 0 indicates no disease control (relative to the controls)). In the assay on Puccinia recondita, the “Test B disease control rating” value is recorded as 0 (a rating of 0 indicates no disease control (relative to the controls)). For the same compound, the “Test C disease control rating” value in the assay with Pyricularia oryzae is reported as 97# %. In addition, in the assay on Phytophthora infestans, the “Test D disease control rating” value is listed as 20%. The “Test E disease control rating (gray mold)” value in the assay with Botrytis cinerea is 19%.

In the case of `CC(NC(=O)C1CC(C)(Cl)C1)C(Oc1cc(F)ccc1F)c1ccccc1` (centres unmarked) [compound 32], the “Test A disease control rating” value in assay [1] was found to be 59%. Further, the “Test B disease control rating” value with Puccinia recondita is reported as 0 (a rating of 0 indicates no disease control (relative to the controls)). For the same compound, in the assay on Pyricularia oryzae, the “Test C disease control rating” value amounted to 52%. The “Test D disease control rating” value in the assay with Phytophthora infestans is given as 0 (a rating of 0 indicates no disease control (relative to the controls)). Besides, in the assay with Botrytis cinerea, the “Test E disease control rating (gray mold)” value was 0 (a rating of 0 indicates no disease control (relative to the controls)).

Consider `CC(COc1cc(F)ccc1F)NC(=O)C1(C(F)(F)F)CC(C)(Cl)C1` (centres unmarked) [compound 28], for which the “Test A disease control rating” value in assay [1] came out at 53%. In addition, the “Test B disease control rating” value with Puccinia recondita is reported as 0 (a rating of 0 indicates no disease control (relative to the controls)). Besides, the “Test C disease control rating” value with Pyricularia oryzae is recorded as 100# (a rating of 100 indicates 100% disease control). Further, the “Test D disease control rating” value in the assay on Phytophthora infestans is on record as 0 (a rating of 0 indicates no disease control (relative to the controls)). Moreover, the “Test E disease control rating (gray mold)” value in the assay on Botrytis cinerea is reported as 0 (a rating of 0 indicates no disease control (relative to the controls)).

Take `COc1cc(Br)ccc1C(C)NC(=O)C1(C)CC(C)(Cl)C1` (centres unmarked) [compound 60]: in assay [1], the “Test A disease control rating” value is reported as 0 (a rating of 0 indicates no disease control (relative to the controls)). Also, the “Test B disease control rating” value in the assay with Puccinia recondita was 0 (a rating of 0 indicates no disease control (relative to the controls)). For the same compound, the “Test C disease control rating” value in the assay with Pyricularia oryzae was 100# (a rating of 100 indicates 100% disease control). Besides, the “Test D disease control rating” value with Phytophthora infestans was found to be 23%. Further, the “Test E disease control rating (gray mold)” value with Botrytis cinerea was 0 (a rating of 0 indicates no disease control (relative to the controls)).

For the compound `CC(COc1cc(Cl)ccc1F)NC(=O)C1(C)CC(C)(Br)C1` (centres unmarked) [compound 54], the “Test A disease control rating” value in assay [1] was 24%. In addition, in the assay on Puccinia recondita, the “Test B disease control rating” value is given as 0 (a rating of 0 indicates no disease control (relative to the controls)). Further, the “Test C disease control rating” value in the assay with Pyricularia oryzae was 97# %. In the assay with Phytophthora infestans, the “Test D disease control rating” value is given as 0 (a rating of 0 indicates no disease control (relative to the controls)). In the assay on Botrytis cinerea, the “Test E disease control rating (gray mold)” value was 0 (a rating of 0 indicates no disease control (relative to the controls)).
